Source: ChEMBL document CHEMBL4364276, “Discovery of 4-phenyl-2H-benzo[b][1,4]oxazin-3(4H)-one derivatives as potent and orally active PI3K/mTOR dual inhibitors” (Eur J Med Chem, 2019)

How the values were obtained:
[1] = target: Serine/threonine-protein kinase PLK3 (Homo sapiens) (UniProt Q9H4B4); experiment: Inhibition of human PLK3 at 100 nM using casein as substrate by [gamma-33P]-ATP assay
HeLa [2] = experiment: Antitumor activity against human HeLa cells xenografted in ig dosed BALB/c nude mouse assessed as tumor growth inhibition administered for 30 days measured every 3 days during compound dosing relative to control; type: functional, organism-based
[3] = target: Serine/threonine-protein kinase NLK (Homo sapiens) (UniProt Q9UBE8); experiment: Inhibition of human NLK at 100 nM using MBP as substrate by [gamma-33P]-ATP assay
[4] = target: Muscle, skeletal receptor tyrosine-protein kinase (Homo sapiens) (UniProt O15146); experiment: Inhibition of human MUSK at 100 nM using MBP as substrate by [gamma-33P]-ATP assay
[5] = target: AMP-activated protein kinase (AMPK) alpha-1/beta-1/gamma-1 (Homo sapiens) (UniProt P54619+Q9Y478+Q13131); experiment: Inhibition of human AMPK (A1/B1/G1) at 100 nM using HMRSAMSGLHLVKRR as substrate by [gamma-33P]-ATP assay; type: protein-complex assay
[6] = target: Myosin light chain kinase 2, skeletal/cardiac muscle (Homo sapiens) (UniProt Q9H1R3); experiment: Inhibition of human MLCK2 at 100 nM using KKLNRTLSFAEPG as substrate by [gamma-33P]-ATP assay
[7] = target: Ephrin type-A receptor 1 (Homo sapiens) (UniProt P21709); experiment: Inhibition of human EPHA1 at 100 nM using poly[Glu:Tyr] (4:1) as substrate by [gamma-33P]-ATP assay
[8] = target: Mitogen-activated protein kinase kinase kinase 21 (Homo sapiens) (UniProt Q5TCX8); experiment: Inhibition of human MLK4 at 100 nM using MEK1 as substrate by [gamma-33P]-ATP assay
[9] = target: Ephrin type-A receptor 6 (Homo sapiens) (UniProt Q9UF33); experiment: Inhibition of human EPHA6 at 100 nM using poly[Glu:Tyr] (4:1) as substrate by [gamma-33P]-ATP assay
[10] = target: Vascular endothelial growth factor receptor 3 (Homo sapiens) (UniProt P35916); experiment: Inhibition of human FLT4 at 100 nM using poly[Glu:Tyr] (4:1) as substrate by [gamma-33P]-ATP assay
[11] = target: Aurora kinase A (Homo sapiens) (UniProt O14965); experiment: Inhibition of human Aurora A at 100 nM using [H-LRRASLG] as substrate by [gamma-33P]-ATP assay
[12] = target: Serine/threonine-protein kinase A-Raf (Homo sapiens) (UniProt P10398); experiment: Inhibition of human ARAF at 100 nM using MEK1 as substrate by [gamma-33P]-ATP assay
[13] = Cmax in Sprague-Dawley rat at 10 mg/kg, po measured upto 24 hrs by LC-MS/MS analysis; type: ADME, organism-based; design: dose 10 mg/kg, route oral; conditions: in vivo
[14] = target: Dual specificity mitogen-activated protein kinase kinase 1 (Homo sapiens) (UniProt Q02750); experiment: Inhibition of human MEK1 at 100 nM using ERK2 as substrate by [gamma-33P]-ATP assay
[15] = target: Platelet-derived growth factor receptor alpha (Homo sapiens) (UniProt P16234); experiment: Inhibition of human PDGFRalpha at 100 nM using poly[Glu:Tyr] (4:1) as substrate by [gamma-33P]-ATP assay
[16] = target: Receptor tyrosine-protein kinase erbB-2 (Homo sapiens) (UniProt P04626); experiment: Inhibition of human ERBB2 at 100 nM using poly[Glu:Tyr] (4:1) as substrate by [gamma-33P]-ATP assay
[17] = target: Serine/threonine-protein kinase tousled-like 1 (Homo sapiens) (UniProt Q9UKI8); experiment: Inhibition of human TLK1 at 100 nM using Histone H3 as substrate by [gamma-33P]-ATP assay
[18] = target: Mitogen-activated protein kinase kinase kinase kinase 2 (Homo sapiens) (UniProt Q12851); experiment: Inhibition of human GCK at 100 nM using MBP as substrate by [gamma-33P]-ATP assay
[19] = target: Ephrin type-A receptor 7 (Homo sapiens) (UniProt Q15375); experiment: Inhibition of human EPHA7 at 100 nM using poly[Glu:Tyr] (4:1) as substrate by [gamma-33P]-ATP assay
[20] = target: Testis-specific serine/threonine-protein kinase 6 (Homo sapiens) (UniProt Q9BXA6); experiment: Inhibition of human SSTK at 100 nM using MBP as substrate by [gamma-33P]-ATP assay
[21] = target: Serine/threonine-protein kinase PAK 6 (Homo sapiens) (UniProt Q9NQU5); experiment: Inhibition of human PAK6 at 100 nM using RRRLSFAEPG as substrate by [gamma-33P]-ATP assay
[22] = target: Cyclin-dependent kinase 2/cyclin E1 (Homo sapiens) (UniProt P24864+P24941); experiment: Inhibition of human CDK2/cyclin-E at 100 nM using histone H1 as substrate by [gamma-33P]-ATP assay; type: protein-complex assay
[23] = target: Ribosomal protein S6 kinase beta-2 (Homo sapiens) (UniProt Q9UBS0); experiment: Inhibition of human p70S6Kb at 100 nM using KKRNRTLTK as substrate by [gamma-33P]-ATP assay
[24] = target: Membrane-associated tyrosine- and threonine-specific cdc2-inhibitory kinase (Homo sapiens) (UniProt Q99640); experiment: Inhibition of human PKMYT1 at 100 nM using MBP as substrate by [gamma-33P]-ATP assay
[25] = target: Activated CDC42 kinase 1 (Homo sapiens) (UniProt Q07912); experiment: Inhibition of human ACK1 at 100 nM using EAIYAAPFAKKK as substrate by [gamma-33P]-ATP assay
[26] = target: Ribosomal protein S6 kinase alpha-5 (Homo sapiens) (UniProt O75582); experiment: Inhibition of human MSK1 at 100 nM using GRPRTSSFAEG as substrate by [gamma-33P]-ATP assay
HepG2 = experiment: cells; conditions: Homo sapiens, HepG2, 72 h
HeLa [27] = experiment: Antitumor activity against human HeLa cells xenografted in BALB/c nude mouse assessed as tumor growth inhibition at 50 mg/kg, ig administered for 30 days measured every 3 days during compound dosing relative to control; type: functional; conditions: po, read-out: TGI
[28] = target: Dual specificity tyrosine-phosphorylation-regulated kinase 4 (Homo sapiens) (UniProt Q9NR20); experiment: Inhibition of human DYRK4 at 100 nM using RRRFRPASPLRGPPK as substrate by [gamma-33P]-ATP assay
[29] = target: Ephrin type-A receptor 2 (Homo sapiens) (UniProt P29317); experiment: Inhibition of human EPHA2 at 100 nM using poly[Glu:Tyr] (4:1) as substrate by [gamma-33P]-ATP assay
[30] = target: Casein kinase I isoform gamma-1 (Homo sapiens) (UniProt Q9HCP0); experiment: Inhibition of human CK1gamma1 at 100 nM using KRRRAL[pS]VASLPGL as substrate by [gamma-33P]-ATP assay
Chain of Casein kinase I isoform gamma-1 (Homo sapiens) (Q9HCP0 whole entry, looked up, canonical isoform): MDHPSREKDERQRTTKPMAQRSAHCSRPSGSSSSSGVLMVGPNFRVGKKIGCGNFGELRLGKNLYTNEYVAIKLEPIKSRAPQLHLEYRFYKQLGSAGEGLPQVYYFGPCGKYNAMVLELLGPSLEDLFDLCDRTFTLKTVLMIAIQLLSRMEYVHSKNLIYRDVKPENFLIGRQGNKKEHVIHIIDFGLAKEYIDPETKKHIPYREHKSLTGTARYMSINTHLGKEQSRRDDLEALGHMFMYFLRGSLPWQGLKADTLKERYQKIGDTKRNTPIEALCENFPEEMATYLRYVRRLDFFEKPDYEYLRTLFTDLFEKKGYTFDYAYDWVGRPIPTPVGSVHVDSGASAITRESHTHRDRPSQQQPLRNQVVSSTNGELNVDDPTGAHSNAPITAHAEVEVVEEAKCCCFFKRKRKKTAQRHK

Chain of Muscle, skeletal receptor tyrosine-protein kinase (Homo sapiens) (O15146 whole entry): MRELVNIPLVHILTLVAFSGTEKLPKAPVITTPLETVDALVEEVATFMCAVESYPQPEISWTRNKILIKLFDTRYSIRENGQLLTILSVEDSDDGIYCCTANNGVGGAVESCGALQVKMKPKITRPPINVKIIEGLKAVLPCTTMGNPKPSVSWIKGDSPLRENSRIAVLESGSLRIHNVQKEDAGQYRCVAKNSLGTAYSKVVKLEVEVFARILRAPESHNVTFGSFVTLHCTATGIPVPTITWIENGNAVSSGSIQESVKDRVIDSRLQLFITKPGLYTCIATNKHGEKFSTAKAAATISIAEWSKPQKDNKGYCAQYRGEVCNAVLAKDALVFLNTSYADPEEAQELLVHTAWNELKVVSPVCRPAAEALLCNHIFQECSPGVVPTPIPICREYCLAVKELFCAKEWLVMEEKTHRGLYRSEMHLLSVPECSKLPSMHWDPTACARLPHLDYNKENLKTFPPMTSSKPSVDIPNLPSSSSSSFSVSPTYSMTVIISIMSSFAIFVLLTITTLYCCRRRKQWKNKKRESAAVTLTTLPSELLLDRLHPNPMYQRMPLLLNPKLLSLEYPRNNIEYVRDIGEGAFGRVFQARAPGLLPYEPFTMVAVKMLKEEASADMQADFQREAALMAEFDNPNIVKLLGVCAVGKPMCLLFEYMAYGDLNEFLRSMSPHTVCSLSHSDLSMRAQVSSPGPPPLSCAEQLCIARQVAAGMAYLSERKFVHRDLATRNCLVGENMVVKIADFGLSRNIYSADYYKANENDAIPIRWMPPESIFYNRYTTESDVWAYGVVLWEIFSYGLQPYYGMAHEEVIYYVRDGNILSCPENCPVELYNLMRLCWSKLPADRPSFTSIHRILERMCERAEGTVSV
Chain of Dual specificity mitogen-activated protein kinase kinase 1 (Homo sapiens) (Q02750 whole entry): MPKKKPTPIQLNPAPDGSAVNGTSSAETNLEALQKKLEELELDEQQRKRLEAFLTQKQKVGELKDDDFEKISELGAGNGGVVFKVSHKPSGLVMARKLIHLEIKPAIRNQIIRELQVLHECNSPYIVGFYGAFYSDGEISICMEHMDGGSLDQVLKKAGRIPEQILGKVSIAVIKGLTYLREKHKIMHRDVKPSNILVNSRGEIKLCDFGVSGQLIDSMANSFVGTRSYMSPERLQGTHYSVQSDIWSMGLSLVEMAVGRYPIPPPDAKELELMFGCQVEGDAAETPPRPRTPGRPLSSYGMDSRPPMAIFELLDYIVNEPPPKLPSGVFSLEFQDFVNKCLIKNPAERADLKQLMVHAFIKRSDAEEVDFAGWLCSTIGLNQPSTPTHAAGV
Chain of Mitogen-activated protein kinase kinase kinase kinase 2 (Homo sapiens) (Q12851 whole entry): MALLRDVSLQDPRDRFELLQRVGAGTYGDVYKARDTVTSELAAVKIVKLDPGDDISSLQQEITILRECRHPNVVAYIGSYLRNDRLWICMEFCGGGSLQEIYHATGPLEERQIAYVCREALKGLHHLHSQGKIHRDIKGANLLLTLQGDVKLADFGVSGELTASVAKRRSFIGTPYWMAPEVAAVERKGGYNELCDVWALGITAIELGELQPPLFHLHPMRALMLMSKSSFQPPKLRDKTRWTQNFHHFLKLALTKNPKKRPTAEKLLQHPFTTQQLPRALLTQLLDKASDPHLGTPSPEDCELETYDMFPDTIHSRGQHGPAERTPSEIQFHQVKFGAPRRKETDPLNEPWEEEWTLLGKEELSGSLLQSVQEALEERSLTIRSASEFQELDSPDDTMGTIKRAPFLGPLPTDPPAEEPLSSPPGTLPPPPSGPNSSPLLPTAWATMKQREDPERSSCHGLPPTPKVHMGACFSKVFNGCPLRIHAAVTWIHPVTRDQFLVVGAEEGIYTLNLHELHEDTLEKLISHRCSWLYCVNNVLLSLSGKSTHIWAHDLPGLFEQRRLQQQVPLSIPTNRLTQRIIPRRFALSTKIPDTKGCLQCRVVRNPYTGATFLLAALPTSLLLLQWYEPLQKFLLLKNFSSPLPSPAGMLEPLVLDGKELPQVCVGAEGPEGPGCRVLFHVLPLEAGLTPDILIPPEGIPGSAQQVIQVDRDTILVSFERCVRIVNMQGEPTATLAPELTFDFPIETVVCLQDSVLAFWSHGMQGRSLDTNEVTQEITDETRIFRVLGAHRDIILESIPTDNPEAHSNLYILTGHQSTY
Chain of Myosin light chain kinase 2, skeletal/cardiac muscle (Homo sapiens) (Q9H1R3 whole entry): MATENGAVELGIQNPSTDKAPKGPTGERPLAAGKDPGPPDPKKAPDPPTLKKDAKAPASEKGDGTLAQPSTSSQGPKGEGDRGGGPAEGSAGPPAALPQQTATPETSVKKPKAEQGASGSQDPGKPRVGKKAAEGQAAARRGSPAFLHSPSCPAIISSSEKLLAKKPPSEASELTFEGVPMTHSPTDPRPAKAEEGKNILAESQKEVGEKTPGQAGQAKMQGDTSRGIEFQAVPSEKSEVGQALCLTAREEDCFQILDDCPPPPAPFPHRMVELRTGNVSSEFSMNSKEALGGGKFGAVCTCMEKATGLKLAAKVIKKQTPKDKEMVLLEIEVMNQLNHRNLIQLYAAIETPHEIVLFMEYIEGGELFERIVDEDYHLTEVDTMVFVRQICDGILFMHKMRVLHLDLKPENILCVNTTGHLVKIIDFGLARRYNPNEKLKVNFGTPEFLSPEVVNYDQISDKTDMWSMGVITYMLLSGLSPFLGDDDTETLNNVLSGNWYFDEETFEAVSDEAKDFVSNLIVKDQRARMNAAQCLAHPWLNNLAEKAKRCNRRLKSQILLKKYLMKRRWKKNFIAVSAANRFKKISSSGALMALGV
Chain of Ephrin type-A receptor 1 (Homo sapiens) (P21709 whole entry): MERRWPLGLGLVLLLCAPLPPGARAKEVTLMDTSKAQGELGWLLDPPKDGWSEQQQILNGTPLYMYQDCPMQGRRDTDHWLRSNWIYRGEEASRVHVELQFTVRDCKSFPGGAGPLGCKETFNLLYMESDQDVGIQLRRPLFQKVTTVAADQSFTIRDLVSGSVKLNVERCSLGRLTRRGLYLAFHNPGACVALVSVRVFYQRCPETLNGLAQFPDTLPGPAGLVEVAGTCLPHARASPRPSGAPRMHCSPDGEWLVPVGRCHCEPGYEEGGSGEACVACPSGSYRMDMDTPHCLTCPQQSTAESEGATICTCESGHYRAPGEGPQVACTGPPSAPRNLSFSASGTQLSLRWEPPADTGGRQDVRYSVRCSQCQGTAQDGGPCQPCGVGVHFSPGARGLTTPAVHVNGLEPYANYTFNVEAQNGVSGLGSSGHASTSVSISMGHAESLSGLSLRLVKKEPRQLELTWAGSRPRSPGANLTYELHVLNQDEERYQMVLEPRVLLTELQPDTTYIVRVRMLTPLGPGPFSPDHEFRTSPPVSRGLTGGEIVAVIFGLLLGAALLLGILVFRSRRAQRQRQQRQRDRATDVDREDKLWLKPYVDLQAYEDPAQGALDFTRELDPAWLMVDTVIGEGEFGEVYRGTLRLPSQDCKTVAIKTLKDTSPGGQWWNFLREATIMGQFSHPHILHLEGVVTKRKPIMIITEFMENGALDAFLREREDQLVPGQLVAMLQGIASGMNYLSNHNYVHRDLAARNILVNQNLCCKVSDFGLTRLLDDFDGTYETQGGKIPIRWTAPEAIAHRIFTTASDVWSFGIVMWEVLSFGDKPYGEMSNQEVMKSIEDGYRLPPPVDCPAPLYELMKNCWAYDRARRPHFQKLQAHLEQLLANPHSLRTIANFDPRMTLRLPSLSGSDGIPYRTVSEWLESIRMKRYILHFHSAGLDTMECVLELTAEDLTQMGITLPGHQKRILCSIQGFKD
Chain of Aurora kinase A (Homo sapiens) (O14965 whole entry): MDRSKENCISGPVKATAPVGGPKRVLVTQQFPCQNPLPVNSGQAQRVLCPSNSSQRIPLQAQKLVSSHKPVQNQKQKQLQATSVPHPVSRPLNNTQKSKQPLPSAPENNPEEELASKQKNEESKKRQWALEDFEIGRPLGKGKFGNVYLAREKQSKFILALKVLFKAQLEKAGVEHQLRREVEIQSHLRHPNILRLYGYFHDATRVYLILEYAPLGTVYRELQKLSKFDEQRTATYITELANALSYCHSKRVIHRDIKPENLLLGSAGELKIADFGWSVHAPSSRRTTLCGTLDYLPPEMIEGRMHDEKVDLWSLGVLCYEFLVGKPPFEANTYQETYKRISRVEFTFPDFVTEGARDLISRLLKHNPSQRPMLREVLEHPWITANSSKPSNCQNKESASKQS
Chain of Testis-specific serine/threonine-protein kinase 6 (Homo sapiens) (Q9BXA6 whole entry): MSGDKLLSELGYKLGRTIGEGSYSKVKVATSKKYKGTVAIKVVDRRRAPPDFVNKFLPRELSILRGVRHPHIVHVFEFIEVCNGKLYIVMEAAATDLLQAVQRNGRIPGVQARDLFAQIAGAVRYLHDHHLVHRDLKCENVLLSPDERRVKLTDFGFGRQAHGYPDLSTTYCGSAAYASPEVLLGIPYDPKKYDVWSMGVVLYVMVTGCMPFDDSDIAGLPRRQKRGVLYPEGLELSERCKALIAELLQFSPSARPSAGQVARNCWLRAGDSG

## COc1ccc(N2C(=O)COc3ccc(-c4cnc(OC)c(NS(=O)(=O)c5ccc(F)cc5)c4)cc32)cc1
[1]
  inhibition: -5.25%
HeLa [2]
  TGI: Dose-dependent effect
[3]
  inhibition: 10.8%
[4]
  inhibition: -3.79%
[5]
  inhibition: -4.91%
[6]
  inhibition: 0.61%
[7]
  inhibition: 4.93%
[8]
  inhibition: 5.78%
[9]
  inhibition: -9.63%
[10]
  inhibition: -7.65%
[11]
  inhibition: 3.17%
[12]
  inhibition: 0.31%
[13]
  Cmax: 887 ng/mL
[14]
  inhibition: 1.42%
[15]
  inhibition: -1.93%
[16]
  inhibition: 3.37%
[17]
  inhibition: 2.5%
[18]
  inhibition: 1.33%
[19]
  inhibition: 11.5%
[20]
  inhibition: 2.2%
[21]
  inhibition: 2.76%
[22]
  inhibition: 11.2%
[23]
  inhibition: 22.3%
[24]
  inhibition: 14%
[25]
  inhibition: 10.4%
[26]
  inhibition: 8.07%
HepG2
  IC50: 13.1 µM
HeLa [27]
  inhibition in vivo at 50 mg/kg: 87.7%
[28]
  inhibition: -2.6%
[29]
  inhibition: 19.2%
[30]
  inhibition: 6.26%
